Results: patent publication US8598348B2, “Purification of 1-[2-(2,4-dimethylphenylsulfanyl)phenyl]piperazine” (H. Lundbeck A/S, priority 2009, dated 2013)
Structures can show the parent of a compound that is named as a salt.

What was measured:
[1] = Water absorption when exposed to high relative humidity; type: physicochemical
[2] = judged from DSC and solubility data; as shown in WO 2007/144005; cited from earlier work
[3] = Solubility in water; type: physicochemical

absorption of water when exposed to high relative humidity [1]: about 0.6% | solubility [3]: 1200 µg/mL
Structure (SMILES): Cc1ccc(Sc2ccccc2N2CCNCC2)c(C)c1 [beta form of the hydrobromide, 1-[2-(2,4-dimethylphenylsulfanyl)phenyl]piperazine-HBr]
stability among the α-, β- and γ-forms of the HBr salt [2]: most stable form
